Tested on: herpes simplex labialis
Assay: In vivo topical treatment, test group A (four individuals)
Design: species or system human
Conditions: common topical medication 5 to 6 times per day
Description: Antiviral performance of the composition of the present invention was evaluated in vivo. The test group A consisted of four individuals suffering from herpes simplex labialis. […] As infections were untreated, the individuals were normally healing in between 7 to 10 days. The time from initiation of the symptoms to when the patients experienced relief of pain from the affected area was between 5 to 7 days. […] The time from initiation of the symptoms to time when the patients experienced relief of pain from the affected area was 3 to 5 days.
The herpes infections of test group were treated topically with a composition containing the polyamine polymer silver complex of the present invention with the following results. The composition was applied topically to the affected areas to cover the cold sores with a coating of the composition two times a day. The time from initiation of the cold sores and treatment with the composition to complete healing averaged between about 2 to 3 days. The time from the initiation of the treatment to when the patients experienced relief of pain from the affected area was about 10 to 15 minutes after the first application.

Question: How did the “time from initiation of the symptoms to relief of pain from the affected area” value turn out when Nc1nc2c(ncn2COCCO)c(=O)[nH]1 [acyclovir] was run?
Answer: 3 to 5 days

Question: And the time to healing?
Answer: 5 to 7 days

— patent US20200276107A1, “Treatment of herpes simplex symptoms on skin and mucous membrane of mammals” (priority 2017, published 2020)
